Measurements taken from US20260130901A1, “CGRP RECEPTOR ANTAGONIST FOR THE TREATMENT OF MIGRAINE” (ALLERGAN PHARMACEUTICALS INTERNATIONAL LIMITED, priority 2022, published 2026).

Test system: participants with migraine (qualifying prodrome events)
Assay: Phase 3 crossover study: absence of prodrome symptoms over time
Type: in vivo, human
Conditions: 100 mg in prodrome; for Absence of sensitivity to sound, Odds ratio vs. placebo / Absence of sensitivity to sound, Responder (%) / Absence of dizziness, Nonresponder (%) / Absence of dizziness, Odds ratio vs. placebo / Absence of dizziness, Responder (%) / Absence of fatigue, Nonresponder (%) / Absence of fatigue, Odds ratio vs. placebo / Absence of fatigue, Responder (%) / Absence of neck pain, Nonresponder (%) / Absence of neck pain, Odds ratio vs. placebo / Absence of neck pain, Responder (%) / Absence of sensitivity to light, Nonresponder (%) / Absence of sensitivity to light, Odds ratio vs. placebo / Absence of sensitivity to light, Responder (%) / Absence of sensitivity to sound, Nonresponder (%): participants with symptom at predose
Experimental: A phase 3, multicenter, randomized, double-blind, placebo-controlled, crossover study was carried out to evaluate the efficacy, safety, and tolerability of oral ubrogepant in the acute treatment of migraine when administered during the prodrome. The study evaluated whether treatment during the initial phase of a migraine attack (i.e., the prodrome or premonitory phase) prior to the onset of headache, can attenuate the severity of the headache phase and reduce disability.
Eligible participants were randomized (1:1) to treatment sequences A or B in this crossover study. Participants randomized to Treatment Sequence A received placebo to treat their first qualifying prodrome event and ubrogepant 100 mg to treat their second qualifying prodrome event. For those randomized to Treatment Sequence B, they received the reverse: ubrogepant 100 mg to treat their first qualifying prodrome event and placebo to treat their second qualifying prodrome event.
N1 is the number of participants with the prodrome symptom at predose. N2 is the number of participants with non-missing prodrome symptom intensity assessment by timepoint after dose. The proportion of events with absence of sensitivity to light after ubrogepant 100 mg was numerically greater than after placebo, starting at 2 hours post-dose and extending through 48 hours (nominal P≤0.0109 for hours 2-8).
N1 is the number of participants with the prodrome symptom at predose. N2 is the number of participants with non-missing prodrome symptom intensity assessment by timepoint after dose. The difference in response rates was nominally significant for the ubrogepant 100 mg dose group compared with placebo as early as 3 hours post-dose administered during the prodrome.
N1 is the number of participants with the prodrome symptom at predose. N2 is the number of participants with non-missing prodrome symptom intensity assessment by timepoint after dose.

C[C@@H]1[C@H](c2ccccc2)C[C@H](NC(=O)c2cnc3c(c2)C[C@@]2(C3)C(=O)Nc3ncccc32)C(=O)N1CC(F)(F)F [Ubrogepant, (3′S)—N-((3S,5S,6R)-6-methyl-2-oxo-5-phenyl-1-(2,2,2-trifluoroethyl)piperidin-3-yl)-2′-oxo-1′,2′,5,7-tetrahydrospiro[cyclopenta[b]pyridine-6,3′-pyrrolo[2,3-b]pyridine]-3-carboxamide]
Absence of sensitivity to sound, Odds ratio vs. placebo (4 Hours post dose): 1.97
Absence of sensitivity to sound, Responder (%) (4 Hours post dose): (50.7) %
Absence of dizziness, Nonresponder (%) (6 Hours post dose): (37.8) %
Absence of dizziness, Odds ratio vs. placebo (6 Hours post dose): 1.45
Absence of dizziness, Responder (%) (6 Hours post dose): (62.2) %
Absence of fatigue, Nonresponder (%) (6 Hours post dose): (56.3) %
Absence of fatigue, Odds ratio vs. placebo (6 Hours post dose): 1.46
Absence of fatigue, Responder (%) (6 Hours post dose): (43.7) %
Absence of neck pain, Nonresponder (%) (6 Hours post dose): (52.0) %
Absence of neck pain, Odds ratio vs. placebo (6 Hours post dose): 1.68
Absence of neck pain, Responder (%) (6 Hours post dose): (48.0) %
Absence of sensitivity to light, Nonresponder (%) (6 Hours post dose): (42.1) %
Absence of sensitivity to light, Odds ratio vs. placebo (6 Hours post dose): 1.75
Absence of sensitivity to light, Responder (%) (6 Hours post dose): (57.9) %
Absence of sensitivity to sound, Nonresponder (%) (6 Hours post dose): (43.3) %
Absence of sensitivity to sound, Odds ratio vs. placebo (6 Hours post dose): 1.44
Absence of sensitivity to sound, Responder (%) (6 Hours post dose): (56.7) %
Absence of dizziness, Nonresponder (%) (8 Hours post dose): (27.9) %
Absence of dizziness, Odds ratio vs. placebo (8 Hours post dose): 1.33
Absence of dizziness, Responder (%) (8 Hours post dose): (72.1) %
Absence of fatigue, Nonresponder (%) (8 Hours post dose): (46.1) %
Absence of fatigue, Odds ratio vs. placebo (8 Hours post dose): 1.87
Absence of fatigue, Responder (%) (8 Hours post dose): (53.9) %
Absence of neck pain, Nonresponder (%) (8 Hours post dose): (49.7) %
Absence of neck pain, Odds ratio vs. placebo (8 Hours post dose): 1.40
Absence of neck pain, Responder (%) (8 Hours post dose): (50.3) %
Absence of sensitivity to light, Nonresponder (%) (8 Hours post dose): (28.9) %
Absence of sensitivity to light, Odds ratio vs. placebo (8 Hours post dose): 2.40
Absence of sensitivity to light, Responder (%) (8 Hours post dose): (71.1) %
Absence of sensitivity to sound, Nonresponder (%) (8 Hours post dose): (33.8) %
Absence of sensitivity to sound, Odds ratio vs. placebo (8 Hours post dose): 1.75
Absence of sensitivity to sound, Responder (%) (8 Hours post dose): (66.2) %
Absence of dizziness, Nonresponder (%) (24 Hours post dose): (11.5) %
Absence of dizziness, Odds ratio vs. placebo (24 Hours post dose): 1.82
Absence of dizziness, Responder (%) (24 Hours post dose): (88.5) %
Absence of fatigue, Nonresponder (%) (24 Hours post dose): (31.4) %
Absence of fatigue, Odds ratio vs. placebo (24 Hours post dose): 1.19
Absence of fatigue, Responder (%) (24 Hours post dose): (68.6) %
Absence of neck pain, Nonresponder (%) (24 Hours post dose): (28.6) %
Absence of neck pain, Odds ratio vs. placebo (24 Hours post dose): 1.42
Absence of neck pain, Responder (%) (24 Hours post dose): (71.4) %
Absence of sensitivity to light, Nonresponder (%) (24 Hours post dose): (18.1) %
Absence of sensitivity to light, Odds ratio vs. placebo (24 Hours post dose): 1.37
Absence of sensitivity to light, Responder (%) (24 Hours post dose): (81.9) %
Absence of sensitivity to sound, Nonresponder (%) (24 Hours post dose): (16.9) %
Absence of sensitivity to sound, Odds ratio vs. placebo (24 Hours post dose): 1.38
Absence of sensitivity to sound, Responder (%) (24 Hours post dose): (83.1) %
Absence of dizziness, Nonresponder (%) (48 Hours post dose): (10.5) %
Absence of dizziness, Odds ratio vs. placebo (48 Hours post dose): 1.66
Absence of dizziness, Responder (%) (48 Hours post dose): (89.5) %
Absence of fatigue, Nonresponder (%) (48 Hours post dose): (22.9) %
Absence of fatigue, Odds ratio vs. placebo (48 Hours post dose): 1.22
Absence of fatigue, Responder (%) (48 Hours post dose): (77.1) %
Absence of neck pain, Nonresponder (%) (48 Hours post dose): (22.2) %
Absence of neck pain, Odds ratio vs. placebo (48 Hours post dose): 1.01
Absence of neck pain, Responder (%) (48 Hours post dose): (77.8) %
Absence of sensitivity to light, Nonresponder (%) (48 Hours post dose): (11.8) %
Absence of sensitivity to light, Odds ratio vs. placebo (48 Hours post dose): 1.52
Absence of sensitivity to light, Responder (%) (48 Hours post dose): (88.2) %
Absence of sensitivity to sound, Nonresponder (%) (48 Hours post dose): (11.7) %
Absence of sensitivity to sound, Odds ratio vs. placebo (48 Hours post dose): 0.93
Absence of sensitivity to sound, Responder (%) (48 Hours post dose): (88.3) %
Effect on the most commonly reported prodrome symptoms compared with placebo (mITT): ameliorated the most commonly reported prodrome symptoms
Earliest time at which difference in response rates vs placebo was nominally significant, absence of fatigue (post-dose): 3 h
Earliest time at which difference in response rates vs placebo was nominally significant, absence of neck pain (post-dose): 3 h
